Data reported in the supplement of paper PMC11061612.

Tests used:
Savolitinib = compound: C[C@@H](c1ccc2nccn2c1)n1nnc2ncc(-c3cnn(C)c3)nc21 [Savolitinib]; settings: max 1 µM
Outline: (§1)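 Cancer cell lines were seeded in 1536-well plates in 7.5 μl DMEM/F12 or RPMI with 10% FBS, held 24 hours at 37°C and 5% CO2, then dosed for 72 hours (final DMSO typically 0.2%). Viability was read by CellTiter-Glo 2.0 luminescence and scaled between blank-well and DMSO-well means. The single-agent IC50 comes from dose responses fitted to a two-parameter logistic curve with a non-linear mixed effects model.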

AZD2811 = compound: CCN(CCO)CCCOc1ccc2c(Nc3cc(CC(=O)Nc4cccc(F)c4)[nH]n3)ncnc2c1 [AZD2811]; settings: max 1 µM
Outline: as §1

SN-38 = compound: CCc1c2c(nc3ccc(O)cc13)-c1cc3c(c(=O)n1C2)COC(=O)[C@]3(O)CC [SN-38]; settings: max 0.3 µM
Outline: as §1

Carboplatin = compound: C1CC(C1)(C(=O)[O-])C(=O)[O-].N.N.[Pt+2] [Carboplatin]; settings: max 10 µM
Outline: as §1

Crizotinib = compound: C[C@@H](Oc1cc(-c2cnn(C3CCNCC3)c2)cnc1N)c1c(Cl)ccc(F)c1Cl [Crizotinib]; settings: max 10 µM
Outline: as §1

AZD1775 = compound: C=CCn1c(=O)c2cnc(Nc3ccc(N4CCN(C)CC4)cc3)nc2n1-c1cccc(C(C)(C)O)n1 [AZD1775]; settings: max 3 µM
Outline: as §1

Olaparib = compound: O=C(c1cc(Cc2n[nH]c(=O)c3ccccc23)ccc1F)N1CCN(C(=O)C2CC2)CC1 [Olaparib]; settings: max 10 µM
Outline: as §1

Doxorubicin = compound: COc1cccc2c1C(=O)c1c(O)c3c(c(O)c1C2=O)C[C@@](O)(C(=O)CO)C[C@@H]3O[C@H]1C[C@H](N)[C@H](O)[C@H](C)O1 [Doxorubicin]; settings: max 1 µM
Outline: as §1

Palbociclib = compound: CC(=O)c1c(C)c2cnc(Nc3ccc(N4CCNCC4)cn3)nc2n(C2CCCC2)c1=O [Palbociclib]; settings: max 10 µM
Outline: as §1

Gefitinib = compound: COc1cc2ncnc(Nc3ccc(F)c(Cl)c3)c2cc1OCCCN1CCOCC1 [Gefitinib]; settings: max 10 µM
Outline: as §1

Paclitaxel = compound: CC(=O)O[C@H]1C(=O)[C@@]2(C)[C@H]([C@H](OC(=O)c3ccccc3)[C@]3(O)C[C@H](OC(=O)[C@H](O)[C@@H](NC(=O)c4ccccc4)c4ccccc4)C(C)=C1C3(C)C)[C@]1(OC(C)=O)CO[C@@H]1C[C@@H]2O [Paclitaxel]; settings: max 3 µM
Outline: as §1

MK-2206 = compound: NC1(c2ccc(-c3nc4ccn5c(=O)[nH]nc5c4cc3-c3ccccc3)cc2)CCC1 [MK-2206]; settings: max 10 µM
Outline: as §1

AZD4320 = compound: CN(CC[C@H](CSC1=CC=CC=C1)NC2=C(C=C(C=C2)S(=O)(=O)NC(=O)C3=CC=C(C=C3)N4CCC(CC4)[C@H](C5=CC=CC=C5C6=CC=C(C=C6)Cl)O)S(=O)(=O)C(F)(F)F)CCO [AZD4320]; settings: max 1 µM
Outline: as §1

Alisertib = compound: COc1cc(Nc2ncc3c(n2)-c2ccc(Cl)cc2C(c2c(F)cccc2OC)=NC3)ccc1C(=O)O [Alisertib]; settings: max 10 µM
Outline: as §1

Gemcitabine = compound: Nc1ccn([C@@H]2O[C@H](CO)[C@@H](O)C2(F)F)c(=O)n1 [Gemcitabine]; settings: max 0.3 µM
Outline: as §1

SRA737 = compound: N#Cc1cnc(Nc2cc(NC[C@H]3CNCCO3)c(C(F)(F)F)cn2)cn1 [SRA737]; settings: max 10 µM
Outline: as §1

AZD8186 = compound: C[C@@H](Nc1cc(F)cc(F)c1)c1cc(C(=O)N(C)C)cc2c(=O)cc(N3CCOCC3)oc12 [AZD8186]; settings: max 10 µM
Outline: as §1

AZD0156 = compound: CN(C)CCCOc1ccc(-c2ccc3ncc4c(c3c2)n(C2CCOCC2)c(=O)n4C)cn1 [AZD0156]; settings: max 3 µM
Outline: as §1

Trametinib = compound: CC(=O)Nc1cccc(-n2c(=O)n(C3CC3)c(=O)c3c(Nc4ccc(I)cc4F)n(C)c(=O)c(C)c32)c1 [Trametinib]; settings: max 1 µM
Outline: as §1

SG3199 = compound: CC1=CN2[C@@H](C1)C=NC3=CC(=C(C=C3C2=O)OC)OCCCCCOC4=C(C=C5C(=C4)N=C[C@@H]6CC(=CN6C5=O)C)OC [SG3199]; settings: max 0.001 µM
Outline: as §1

AZD5991 = compound: Cc1c2c(nn1C)CSCc1cc(n(C)n1)CSc1cc(c3ccccc3c1)OCCCc1c(C(=O)O)n(C)c3c-2c(Cl)ccc13 [AZD5991]; settings: max 1 µM
Outline: as §1

Prexasertib = compound: COc1cccc(OCCCN)c1-c1cc(Nc2cnc(C#N)cn2)n[nH]1 [Prexasertib]; settings: max 1 µM
Outline: as §1

AZD1390 = compound: CC(C)n1c(=O)n(C)c2cnc3cc(F)c(-c4ccc(OCCCN5CCCCC5)nc4)cc3c21 [AZD1390]; settings: max 0.3 µM
Outline: as §1

Dasatinib = compound: CC1=C(C(=CC=C1)Cl)NC(=O)C2=CN=C(S2)NC3=CC(=NC(=N3)C)N4CCN(CC4)CCO [Dasatinib]; settings: max 2 µM
Outline: as §1

[1] = compound: O=C(Nc1ccc2[nH]nc(-c3ccncc3)c2c1)[C@@H]1CCN(CC(=O)N2CCN(c3ccc(-c4ncccn4)cc3)CC2)C1; settings: max 5 µM
Outline: as §1

Selumetinib = compound: Cn1cnc2c(F)c(Nc3ccc(Br)cc3Cl)c(C(=O)NOCCO)cc21 [Selumetinib]; settings: max 10 µM
Outline: as §1

Venetoclax = compound: CC1(C)CCC(CN2CCN(c3ccc(C(=O)NS(=O)(=O)c4ccc(NCC5CCOCC5)c([N+](=O)[O-])c4)c(Oc4cnc5[nH]ccc5c4)c3)CC2)=C(c2ccc(Cl)cc2)C1 [Venetoclax]; settings: max 1 µM
Outline: as §1

AZD5153 = compound: COc1nnc2ccc(N3CCC(c4ccc(OCCN5CCN(C)C(=O)[C@H]5C)cc4)CC3)nn12 [AZD5153]; settings: max 1 µM
Outline: as §1

5-Fluorouracil = compound: O=c1[nH]cc(F)c(=O)[nH]1 [5-Fluorouracil]; settings: max 20 µM
Outline: as §1

AZD7648 = compound: Cc1cc2ncnn2cc1Nc1ncc2c(n1)n(C1CCOCC1)c(=O)n2C [AZD7648]; settings: max 10 µM
Outline: as §1

Taselisib = compound: Cc1nc(-c2cn3c(n2)-c2ccc(-c4cnn(C(C)(C)C(N)=O)c4)cc2OCC3)n(C(C)C)n1 [Taselisib]; settings: max 10 µM
Outline: as §1

Etoposide = compound: COc1cc([C@@H]2c3cc4c(cc3[C@@H](O[C@@H]3O[C@@H]5CO[C@@H](C)O[C@H]5[C@H](O)[C@H]3O)[C@H]3COC(=O)[C@H]23)OCO4)cc(OC)c1O [Etoposide]; settings: max 10 µM
Outline: as §1

Lapatinib = compound: CS(=O)(=O)CCNCc1ccc(-c2ccc3ncnc(Nc4ccc(OCc5cccc(F)c5)c(Cl)c4)c3c2)o1 [Lapatinib]; settings: max 10 µM
Outline: as §1

AZD6738 = compound: C[C@@H]1COCCN1C2=NC(=NC(=C2)C3(CC3)[S@](=N)(=O)C)C4=C5C=CNC5=NC=C4 [AZD6738]; settings: max 10 µM
Outline: as §1

AZD5363 = compound: C1CN(CCC1(C(=O)N[C@@H](CCO)C2=CC=C(C=C2)Cl)N)C3=NC=NC4=C3C=CN4 [AZD5363]; settings: max 10 µM
Outline: as §1

WIL2-NS (Non-Cancerous)
IC50, cell viability 72 h (Savolitinib): > 1000 nM
IC50, cell viability 72 h (AZD2811): > 1000 nM
IC50, cell viability 72 h (SN-38): 4.65 nM
IC50, cell viability 72 h (Carboplatin): > 10 µM
IC50, cell viability 72 h (Crizotinib): > 10 µM
IC50, cell viability 72 h (AZD1775): 231 nM
IC50, cell viability 72 h (Olaparib): > 10 µM
IC50, cell viability 72 h (Doxorubicin): 105 nM
IC50, cell viability 72 h (Palbociclib): 629 nM
IC50, cell viability 72 h (Gefitinib): > 10 µM
IC50, cell viability 72 h (Paclitaxel): 10.7 nM
IC50, cell viability 72 h (MK-2206): 6.09 µM
IC50, cell viability 72 h (AZD4320): > 1000 nM
IC50, cell viability 72 h (Alisertib): 927 nM
IC50, cell viability 72 h (Gemcitabine): 7.8 nM
IC50, cell viability 72 h (SRA737): 1730 nM
IC50, cell viability 72 h (AZD8186): > 10 µM
IC50, cell viability 72 h (AZD0156): > 3000 nM
IC50, cell viability 72 h (Trametinib): > 1000 nM
IC50, cell viability 72 h (SG3199): > 1 nM
IC50, cell viability 72 h (AZD5991): > 1000 nM
IC50, cell viability 72 h (Prexasertib): 6.04 nM
IC50, cell viability 72 h (AZD1390): > 300 nM
IC50, cell viability 72 h (Dasatinib): 1350 nM
IC50, cell viability 72 h [1]: > 5 µM
IC50, cell viability 72 h (Selumetinib): > 10 µM
IC50, cell viability 72 h (Venetoclax): > 1000 nM
IC50, cell viability 72 h (AZD5153): 44.8 nM
IC50, cell viability 72 h (5-Fluorouracil): > 20 µM
IC50, cell viability 72 h (AZD7648): > 10 µM
IC50, cell viability 72 h (Taselisib): 6.95 µM
IC50, cell viability 72 h (Etoposide): 375 nM
IC50, cell viability 72 h (Lapatinib): > 10 µM
IC50, cell viability 72 h (AZD6738): 1260 nM
IC50, cell viability 72 h (AZD5363): 2380 nM

WM-115 (Melanoma)
IC50, cell viability 72 h (Savolitinib): > 1000 nM
IC50, cell viability 72 h (AZD2811): > 1000 nM
IC50, cell viability 72 h (SN-38): > 300 nM
IC50, cell viability 72 h (Carboplatin): > 10 µM
IC50, cell viability 72 h (Crizotinib): > 10 µM
IC50, cell viability 72 h (AZD1775): > 3000 nM
IC50, cell viability 72 h (Olaparib): > 10 µM
IC50, cell viability 72 h (Doxorubicin): 633 nM
IC50, cell viability 72 h (Palbociclib): > 10000 nM
IC50, cell viability 72 h (Gefitinib): > 10 µM
IC50, cell viability 72 h (Paclitaxel): 387 nM
IC50, cell viability 72 h (MK-2206): > 10 µM
IC50, cell viability 72 h (AZD4320): > 1000 nM
IC50, cell viability 72 h (Alisertib): > 10000 nM
IC50, cell viability 72 h (Gemcitabine): > 300 nM
IC50, cell viability 72 h (SRA737): > 10000 nM
IC50, cell viability 72 h (AZD8186): 3.41 µM
IC50, cell viability 72 h (AZD0156): > 3000 nM
IC50, cell viability 72 h (Trametinib): 182 nM
IC50, cell viability 72 h (SG3199): > 1 nM
IC50, cell viability 72 h (AZD5991): > 1000 nM
IC50, cell viability 72 h (Prexasertib): 486 nM
IC50, cell viability 72 h (AZD1390): > 300 nM
IC50, cell viability 72 h (Dasatinib): > 2000 nM
IC50, cell viability 72 h [1]: > 5 µM
IC50, cell viability 72 h (Selumetinib): > 10 µM
IC50, cell viability 72 h (Venetoclax): > 1000 nM
IC50, cell viability 72 h (AZD5153): > 1000 nM
IC50, cell viability 72 h (5-Fluorouracil): > 20 µM
IC50, cell viability 72 h (AZD7648): > 10 µM
IC50, cell viability 72 h (Taselisib): 7.27 µM
IC50, cell viability 72 h (Etoposide): > 10000 nM
IC50, cell viability 72 h (Lapatinib): > 10 µM
IC50, cell viability 72 h (AZD6738): > 10000 nM
IC50, cell viability 72 h (AZD5363): > 10000 nM
